Target: T1, human Werner helicase (Uniprot Q14191, amino acids 517-1235 with L1074F point mutation), WRN-BV08 (Homo sapiens, UniProt Q14191, L1074F)
T1 construct: Uniprot Q14191, amino acids 517-1235 with L1074F point mutation; TEV cleavable 8xHis tag (C, cleaved yes); made in house; host or cells: Sf9 insect cells (baculovirus, pFastBac)
Assay: WRN (BV08) ADP-Glo Assay
Type: biochemical

T1 sequence (Q14191 517-1235 L1074F): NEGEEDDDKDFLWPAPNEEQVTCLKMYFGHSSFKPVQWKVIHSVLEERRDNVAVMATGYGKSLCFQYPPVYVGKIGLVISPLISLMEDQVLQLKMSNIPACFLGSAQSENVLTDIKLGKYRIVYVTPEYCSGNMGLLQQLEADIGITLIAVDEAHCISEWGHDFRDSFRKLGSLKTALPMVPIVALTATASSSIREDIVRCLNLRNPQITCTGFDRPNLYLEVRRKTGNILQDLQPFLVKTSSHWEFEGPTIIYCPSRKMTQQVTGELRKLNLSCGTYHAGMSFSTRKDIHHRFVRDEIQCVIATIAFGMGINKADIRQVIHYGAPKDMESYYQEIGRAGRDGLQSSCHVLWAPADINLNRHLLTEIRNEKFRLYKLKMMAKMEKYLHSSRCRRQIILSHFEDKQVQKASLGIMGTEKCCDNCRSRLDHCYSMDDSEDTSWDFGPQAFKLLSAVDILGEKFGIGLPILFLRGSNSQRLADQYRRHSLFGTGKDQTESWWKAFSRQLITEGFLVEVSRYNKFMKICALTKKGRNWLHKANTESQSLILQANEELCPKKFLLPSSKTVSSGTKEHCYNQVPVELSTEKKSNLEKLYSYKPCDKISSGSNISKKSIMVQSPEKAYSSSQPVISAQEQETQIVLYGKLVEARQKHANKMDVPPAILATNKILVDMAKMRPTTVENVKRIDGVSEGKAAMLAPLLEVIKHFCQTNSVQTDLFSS

SMILES	IC50 [nM]
CCc1c(N2CCN(C(=O)c3nnn(C)n3)CC2)c(=O)n2nc(-c3ccnc(OC)c3)nc2n1CC(=O)Nc1ccc(C(F)(F)F)cc1Cl [Compound I-74, N-[2-chloro-4-(trifluoromethyl)phenyl]-2-[5-ethyl-2-(2-methoxypyridin-4-yl)-6-[4-(2-methyl-2H-1,2,3,4-tetrazole-5-carbonyl)piperazin-1-yl]-7-oxo-4H,7H-[1,2,4]triazolo[1,5-a]pyrimidin-4-yl]acetamide]	5 to 50
CCc1c(N2CCN(C(=O)c3ncc4c(c3O)CCO4)CC2)c(=O)n2nc(C3=CCOCC3)nc2n1CC(=O)Nc1ccc(C(F)(F)F)cc1Cl [Compound I-84, N-[2-chloro-4-(trifluoromethyl)phenyl]-2-[2-(3,6-dihydro-2H-pyran-4-yl)-5-ethyl-6-(4-{4-hydroxy-2H,3H-furo[2,3-c]pyridine-5-carbonyl}piperazin-1-yl)-7-oxo-4H,7H-[1,2,4]triazolo[1,5-a]pyrimidin-4-yl]acetamide]	< 5
CCc1c(N2CCN(C(=O)c3cnc(C)s3)CC2)c(=O)n2nc(-c3ccnc(OC)c3)nc2n1CC(=O)Nc1ccc(C(F)(F)F)cc1Cl [Compound I-59, N-[2-chloro-4-(trifluoromethyl)phenyl]-2-[5-ethyl-2-(2-methoxypyridin-4-yl)-6-[4-(2-methyl-1,3-thiazole-5-carbonyl)piperazin-1-yl]-7-oxo-4H,7H-[1,2,4]triazolo[1,5-a]pyrimidin-4-yl]acetamide]	5 to 50
CCc1c(N2CCN(C(C)=O)CC2)c(=O)n2nc(-c3ccnc(OC)c3)nc2n1CC(=O)Nc1ccc(C(F)(F)F)cc1Cl [Compound I-46, 2-[6-(4-acetylpiperazin-1-yl)-5-ethyl-2-(2-methoxypyridin-4-yl)-7-oxo-4H,7H-[1,2,4]triazolo[1,5-a]pyrimidin-4-yl]-N-[2-chloro-4-(trifluoromethyl)phenyl]acetamide]	5 to 50

Further lines, results first:

IC50 [nM]	SMILES
5 to 50	CCc1c(N2CCN(C(=O)c3nnc(C)s3)CC2)c(=O)n2nc(C3=CCOCC3)nc2n1CC(=O)Nc1ccc(C(F)(F)F)cc1Cl [Compound I-41, N-[2-chloro-4-(trifluoromethyl)phenyl]-2-[2-(3,6-dihydro-2H-pyran-4-yl)-5-ethyl-6-[4-(5-methyl-1,3,4-thiadiazole-2-carbonyl)piperazin-1-yl]-7-oxo-4H,7H-[1,2,4]triazolo[1,5-a]pyrimidin-4-yl]acetamide]
5 to 50	CCc1c(N2CCN(C(=O)c3cnc(C)o3)CC2)c(=O)n2nc(-c3ccnc(OC)c3)nc2n1CC(=O)Nc1ccc(C(F)(F)F)cc1Cl [Compound I-67, N-[2-chloro-4-(trifluoromethyl)phenyl]-2-[5-ethyl-2-(2-methoxypyridin-4-yl)-6-[4-(2-methyl-1,3-oxazole-5-carbonyl)piperazin-1-yl]-7-oxo-4H,7H-[1,2,4]triazolo[1,5-a]pyrimidin-4-yl]acetamide]
5 to 50	CCc1c(N2CCN(C(=O)c3cnn(C(F)F)c3)CC2)c(=O)n2nc(-c3ccnc(OC)c3)nc2n1CC(=O)Nc1ccc(C(F)(F)F)cc1Cl [Compound I-61, N-[2-chloro-4-(trifluoromethyl)phenyl]-2-(6-{4-[1-(difluoromethyl)-1H-pyrazole-4-carbonyl]piperazin-1-yl}-5-ethyl-2-(2-methoxypyridin-4-yl)-7-oxo-4H,7H-[1,2,4]triazolo[1,5-a]pyrimidin-4-yl)acetamide]
< 5	CCc1c(N2CCN(C(=O)c3ncc4c(c3O)CCO4)CC2)c(=O)n2nc(-c3ccnc(OC)c3)nc2n1CC(=O)Nc1ccc(C(F)(F)F)cc1Cl [Compound I-85, N-[2-chloro-4-(trifluoromethyl)phenyl]-2-[5-ethyl-6-(4-{4-hydroxy-2H,3H-furo[2,3-c]pyridine-5-carbonyl}piperazin-1-yl)-2-(2-methoxypyridin-4-yl)-7-oxo-4H,7H-[1,2,4]triazolo[1,5-a]pyrimidin-4-yl]acetamide]
